Measured values from patent US11484543B2, “Compositions and methods for diagnosing and treating diseases and disorders associated with mutant KCNJ5” (The Rockefeller University, priority 2017, dated 2022).
Read-outs that look alike come from different tables or passages of the source.

Assays:
[1] = molecular target: T1, KCNJ5^L168R (Homo sapiens, UniProt P48544, L168R); assay: Cell viability assay (ATP, CellTiter-Glo): rescue of KCNJ5^L168R-induced lethality in inducible HEK293 cells; format: cell-based
T1 construct: expressed in transfected cells
T1 sequence (P48544 1-419 L168R): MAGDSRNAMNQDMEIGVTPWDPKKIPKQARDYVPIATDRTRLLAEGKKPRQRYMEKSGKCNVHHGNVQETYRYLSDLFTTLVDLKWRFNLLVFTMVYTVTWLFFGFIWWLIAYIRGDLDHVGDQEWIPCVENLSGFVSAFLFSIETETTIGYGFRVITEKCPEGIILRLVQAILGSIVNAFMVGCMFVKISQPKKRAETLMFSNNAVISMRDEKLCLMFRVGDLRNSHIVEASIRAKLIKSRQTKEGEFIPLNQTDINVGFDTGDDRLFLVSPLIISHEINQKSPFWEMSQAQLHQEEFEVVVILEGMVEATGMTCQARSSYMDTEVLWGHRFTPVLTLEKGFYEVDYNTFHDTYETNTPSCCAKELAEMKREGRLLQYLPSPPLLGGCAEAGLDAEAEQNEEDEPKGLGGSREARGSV

[2] = system: CYP11B2 (aldosterone synthase) expression, H295R cells expressing KCNJ5^L168R; assay: Real-time PCR of CYP11B2 in H295R cells transfected with KCNJ5^L168R; format: cell-based, human; conditions: 5, 20 or 50 μM for 18 h; p=0.0034 at 20 μM
Procedure: (§1) H295R cells were cultured in DMEM/F12, HEPES (Gibco) supplemented with 2.5% Ultroser G (Pall Biosepra), 1% ITS+ Premix (Corning) and 1% Penicillin/Streptomycin (Gibco). Plasmids were purified using the Endofree Maxi Kit (Qiagen). […] 3×10^6 cells were transfected with 3 μg pIRES eGFP containing no insert, WT or mutant KCNJ5 using an Amaxa Nucleofector I (program P-20) and the Nucleofector Kit R (Lonza). Cells were allowed to recover briefly in RPMI 1640 medium (Gibco). […] After an additional 18 h, RNA was harvested using the RNeasy Mini Kit (Qiagen) following the manufacturer's instructions. 300 ng RNA were transcribed using the Quantitect Reverse Transcription Kit (Qiagen). Expression levels of CYP11B2 and GAPDH were quantified in triplicates in a 7300 Real-Time PCR System (Applied Biosystems) using the Taqman Gene Expression Master Mix and assays Hs01597732_m1 (CYP11B2) or HS02758991_g1 (GAPDH) (all Applied Biosystems). DDCT values were calculated by normalization of DCT values, using the average DCT of vehicle treated empty vector-transfected cells as a reference.
(§2) This cell line is derived from a human adrenocortical carcinoma and represents a commonly used in vitro model of zona glomerulosa aldosterone production (Wang et al. 2012, Horm. Metab. Res. 44:245-250). […]

[3] = single dose of 300 mg, healthy adults, cited from earlier work
[4] = system: CYP11B2 (aldosterone synthase) expression, H295R cells expressing KCNJ5^G151R; assay: Real-time PCR of CYP11B2 in H295R cells transfected with KCNJ5^G151R; format: cell-based, human; conditions: 5, 20 or 50 μM for 18 h; p=0.0006 at 20 μM
Procedure: as §1, §2

Molecule	L168R maximum inhibition ([1]; 10-point dilution 20 to 0.0391 μM, N=3, four-parameter fit) [%]	dose response on KCNJ5^L168R ([1]; tested at 1.1, 3.3 and 10 μM)	expression of CYP11B2 [2]	maximum serum concentrations [3] [mg/L]	maximum serum concentrations ([3]; conversion of 16.4 mg/L) [µM]	expression of CYP11B2 [4]	inhibition of KCNJ5^L168R by synthesized macrolide derivatives ([1]; tested as in FIG. 7 (FIGS. 9 and 10))
CC[C@H]1OC(=O)[C@H](C)[C@@H](O[C@H]2C[C@@](C)(OC)[C@@H](O)[C@H](C)O2)[C@H](C)[C@@H](O[C@@H]2O[C@H](C)C[C@H](N(C)C)[C@H]2O)[C@](C)(O)C[C@@H](C)/C(=N\OCOCCOC)[C@H](C)[C@@H](O)[C@]1(C)O [Roxithromycin, roxithromycin]	81.39	showed a dose response	inhibited expression of CYP11B2 in a dose-dependent fashion	16.4	~17	inhibited expression of CYP11B2 in a dose-dependent fashion	
N-demethyl-N-isobutyl-8,9-anhydroerythromycin A 6,9-hemiacetal [PLUX37]							significant inhibition
